{"source": "ChEMBL document CHEMBL1135341", "about": "“Analogue based design of MMP-13 (Collagenase-3) inhibitors” (Bioorg Med Chem Lett, 2002)", "molecular_target": "Collagenase 3 (Homo sapiens, UniProt P45452)", "assay": "Inhibitory activity against recombinant human matrix metalloprotease-13", "data": [{"molecule": "COCCOCCC#CCC(NS(=O)(=O)c1ccc(-c2ccc(OC)cc2)cc1)C(=O)O", "note": "(configuration not stated)", "values": [{"measurement": "IC50", "value": 87.1, "unit": "nM"}]}, {"molecule": "O=C(O)C(CC#Cc1ccccc1)NS(=O)(=O)c1ccc(C#Cc2ccccc2)cc1", "note": "(configuration not stated)", "values": [{"measurement": "IC50", "value": 89.1, "unit": "nM"}]}]}
